According to the CheMixHub viscosity set:
± gives the uncertainty stated by the source.

Assay: xn = mol fraction of the nth substance listed

CCCCCOC(C)=O + O
303.15 K, 101.3 kPa
Details | viscosity [mPa·s]
x2 = 0.0121 | 0.796 ± 0.025
x2 = 0.0385 | 0.801 ± 0.025
x2 = 0.0645 | 0.805 ± 0.026
x2 = 0.0655 | 0.805 ± 0.026
x2 = 0.0854 | 0.809 ± 0.026

C[NH+]1CCCC1=O.O=S(=O)([O-])c1ccccc1 + O
viscosity [mPa·s]
Details | 293.15 K | 298.15 K | 303.15 K | 308.15 K
100 kPa, x1 = 0.001798 | 1.074 ± 0.012 | 0.9472 ± 0.011 | 0.8439 ± 0.0098 | 0.7688 ± 0.0089
100 kPa, x1 = 0.003606 | 1.137 ± 0.013 | – | 0.8882 ± 0.01 | 0.8029 ± 0.0093
100 kPa, x1 = 0.005372 | 1.198 ± 0.014 | 1.053 ± 0.012 | 0.9316 ± 0.011 | –
100 kPa, x1 = 0.008042 | 1.285 ± 0.015 | – | 0.998 ± 0.011 | 0.8943 ± 0.01
100 kPa, x1 = 0.01069 | 1.372 ± 0.016 | 1.206 ± 0.014 | – | 0.9518 ± 0.011
100 kPa, x1 = 0.01421 | 1.491 ± 0.017 | – | – | –
100 kPa, x1 = 0.02115 | 1.749 ± 0.02 | – | – | –
100 kPa, x1 = 0.02631 | 1.971 ± 0.023 | 1.746 ± 0.02 | 1.541 ± 0.018 | 1.369 ± 0.016
100 kPa, x1 = 0.03141 | 2.217 ± 0.026 | 1.963 ± 0.023 | 1.737 ± 0.02 | 1.527 ± 0.018
101 kPa, x1 = 0.005347 | – | 1.055 ± 0.012 | – | –
101 kPa, x1 = 0.01545 | – | – | 1.185 ± 0.014 | –

Cc1nc(C)n(C)c1C + O
viscosity [mPa·s], 100 kPa
Details | x1 = 0.0159 | x1 = 0.035 | x1 = 0.0585 | x1 = 0.0882 | x1 = 0.127
298.15 K | 1.258 ± 0.051 | 1.817 ± 0.074 | 2.65 ± 0.11 | 3.86 ± 0.16 | 5.77 ± 0.25
303.15 K | 1.125 ± 0.046 | 1.61 ± 0.066 | 2.31 ± 0.09 | 3.35 ± 0.14 | 4.91 ± 0.22
313.15 K | 0.899 ± 0.037 | 1.244 ± 0.051 | 1.733 ± 0.071 | 2.53 ± 0.1 | 3.36 ± 0.15
323.15 K | 0.756 ± 0.031 | 0.998 ± 0.041 | 1.344 ± 0.055 | 1.806 ± 0.073 | 2.44 ± 0.11

O=C([O-])CC(O)(CC(=O)[O-])C(=O)[O-].[NH3+]CCO.[NH3+]CCO.[NH3+]CCO + O
viscosity [mPa·s], 101 kPa
Details | x1 = 0.0053 | x1 = 0.012 | x1 = 0.02 | x1 = 0.031 | x1 = 0.046 | x1 = 0.067 | x1 = 0.16
293.15 K | 1.211 ± 0.097 | 1.575 ± 0.13 | 2.21 ± 0.18 | 3.385 ± 0.27 | 6.303 ± 0.51 | 12.36 ± 1.1 | 106.7 ± 8.8
303.15 K | 0.9345 ± 0.075 | 1.18 ± 0.095 | 1.608 ± 0.13 | 2.382 ± 0.19 | 4.312 ± 0.35 | 8.015 ± 0.66 | 66.19 ± 5.4
313.15 K | 0.7529 ± 0.06 | 0.9296 ± 0.075 | 1.227 ± 0.099 | 1.786 ± 0.14 | 3.032 ± 0.25 | 5.371 ± 0.44 | 39.23 ± 3.2
323.15 K | 0.6242 ± 0.05 | 0.7501 ± 0.06 | 0.9638 ± 0.078 | 1.351 ± 0.11 | 2.228 ± 0.18 | 3.77 ± 0.31 | 21.96 ± 1.8

O=C1CCCN1C1CCCCC1 + O
298.15 K, 100 kPa
Details | viscosity [mPa·s]
x1 = 0.01 | 1.219 ± 0.016
x1 = 0.0196 | 1.621 ± 0.019
x1 = 0.0303 | 2.139 ± 0.023
x1 = 0.0392 | 2.582 ± 0.026
x1 = 0.0484 | 3.059 ± 0.03
x1 = 0.0565 | 3.503 ± 0.035
x1 = 0.0683 | 4.138 ± 0.042
x1 = 0.079 | 4.749 ± 0.05
x1 = 0.0878 | 5.762 ± 0.061
x1 = 0.0982 | 5.739 ± 0.06
x1 = 0.2023 | 10.42 ± 0.13
x1 = 0.2989 | 12.86 ± 0.17
x1 = 0.3988 | 13.62 ± 0.18
x1 = 0.498 | 13.33 ± 0.18
x1 = 0.5984 | 12.65 ± 0.16
x1 = 0.7063 | 11.87 ± 0.15
x1 = 0.7985 | 11.27 ± 0.14
x1 = 0.8996 | 10.76 ± 0.13
x1 = 0.9093 | 10.71 ± 0.13
x1 = 0.9161 | 10.68 ± 0.13
x1 = 0.928 | 10.65 ± 0.13
x1 = 0.9365 | 10.61 ± 0.13
x1 = 0.9461 | 10.58 ± 0.13
x1 = 0.9574 | 10.52 ± 0.13
x1 = 0.9675 | 10.5 ± 0.13
x1 = 0.9784 | 10.46 ± 0.13
x2 = 0.0112 | 10.41 ± 0.13

O=C1OCCO1 + O
298.15 K, 101 kPa
Details | viscosity [mPa·s]
x1 = 0.0166 | 0.955 ± 0.009
x1 = 0.0221 | 0.968 ± 0.01
x1 = 0.0415 | 1.038 ± 0.01
x1 = 0.0635 | 1.096 ± 0.011
x1 = 0.0897 | 1.172 ± 0.011
x1 = 0.1194 | 1.253 ± 0.012
x1 = 0.1403 | 1.309 ± 0.013
x1 = 0.1625 | 1.377 ± 0.013
x1 = 0.2345 | 1.519 ± 0.015
x1 = 0.3229 | 1.647 ± 0.016
x1 = 0.3784 | 1.704 ± 0.017
x1 = 0.4412 | 1.751 ± 0.017
x1 = 0.5409 | 1.831 ± 0.018
x1 = 0.6443 | 1.898 ± 0.019

OCCOCCOCCOCCOCCOCCOCCOCCOCCO + O
viscosity [mPa·s], 100 kPa
Details | 293.15 K | 298.15 K | 303.15 K | 308.15 K | 313.15 K | 318.15 K | 323.15 K
x2 = 0.093 | 124.5 ± 4.9 | 93.99 ± 3 | 72.59 ± 1.6 | 57.45 ± 1 | 46.04 ± 0.8 | 37.51 ± 0.59 | 30.97 ± 0.45
x2 = 0.12 | 121.6 ± 4.6 | 92.08 ± 2.4 | 71.18 ± 1.1 | 56.4 ± 0.7 | 45.22 ± 0.56 | 36.83 ± 0.41 | 30.41 ± 0.31
x2 = 0.187 | 120.7 ± 4.6 | 91.49 ± 2.4 | 70.11 ± 1.1 | 55.25 ± 0.66 | 44.27 ± 0.54 | 36.03 ± 0.4 | 29.76 ± 0.3
x2 = 0.256 | 117.4 ± 4.5 | 88.73 ± 2.2 | 68.34 ± 0.97 | 54.28 ± 0.58 | 43.47 ± 0.48 | 35.36 ± 0.34 | 29.19 ± 0.25

CC1CCCO1 (stereo unspecified) + O=C1CCCC1
298.15 K, 101 kPa
Details | viscosity [mPa·s]
x1 = 0.0212 | 1.103 ± 0.0079
x1 = 0.0637 | 1.061 ± 0.0077
x1 = 0.1277 | 1.001 ± 0.0075
x1 = 0.1917 | 0.944 ± 0.0073
x1 = 0.2563 | 0.89 ± 0.0071
x1 = 0.3212 | 0.84 ± 0.0069
x1 = 0.3856 | 0.792 ± 0.0067
x1 = 0.4507 | 0.747 ± 0.0065
x1 = 0.5157 | 0.705 ± 0.0064
x1 = 0.5812 | 0.665 ± 0.0062
x1 = 0.6466 | 0.628 ± 0.0061
x1 = 0.7069 | 0.596 ± 0.006
x1 = 0.7785 | 0.56 ± 0.0059
x1 = 0.8445 | 0.529 ± 0.0058
x1 = 0.9107 | 0.5 ± 0.0056
x1 = 0.9775 | 0.472 ± 0.0055
